Measurements as given in US20250296959A1, “B7-H3 TARGETING PEPTIDES AND CONSTRUCTS THEREOF” (Mariana Oncology Inc., priority 2024, published 2025).
Where two headings read alike, the source gives them in different places. Starred links: 1 amine or outer side, 2 acyl side, 3 side chain; linkers in the order of their positions; H or OH if unused. Positions of bridges follow the written chain, without caps; N, C: chain ends. Non-standard residues stand in square brackets, D forms with d. Residues, ends and D or L forms follow the SMILES beside them. *: point of attachment. Ala(piperidin-4-yl) = O=C([C@H](CC1CCN([*:3])CC1)N[*:1])[*:2]; DOTA = O=C(O)CN1CCN(CC(=O)O)CCN(CC(=O)*)CCN(CC(=O)O)CC1; Trp(5-F) = N[C@@H](Cc1c[nH]c2ccc(F)cc12)C(=O)O; 1Nal = N[C@@H](Cc1cccc2ccccc12)C(=O)O; Ala(4-THP) = N[C@@H](CC1CCOCC1)C(=O)O; Val(3-OH) = CC(C)(O)[C@H](N)C(=O)O; 4Pal = N[C@@H](Cc1ccncc1)C(=O)O; Tle = CC(C)(C)[C@H](N)C(=O)O; hLeu = CC(C)CC[C@H](N)C(=O)O; Ms = CS(=O)(=O)*; Sar = CNCC(=O)O

What was measured:
Calu-6 cell line [1] = test: Net internalization of [177Lu]Lu-labeled peptide in Calu-6 cells; format: cell-based, Human; conditions: 1 hour, 37° C., glycine pH 2.5 acid wash
Protocol: (§1) [^177Lu]LuCl3 was received from venders in HCl solution. For every mCi of [^177Lu]LuCl3 added to the reaction vial (1.5 mL Eppendorf vial), ammonium acetate buffer (0.2 M, pH 4.9, 100 μL, containing 1% w/v ascorbic acid and 6% v/v ethanol) and peptide conjugate (1 nmol) was added. The pH of the solution was determined to be approximately 5 by using pH strips. The reaction vial was incubated at 80° C., 700 RPM for 17-20 minutes. A sample from the reaction was analyzed by RP-HPLC using an Agilent Infinity II 1260 HPLC to determine reaction completion and radiochemical purity. HPLC conditions: Waters XBridge BEH C18 Column, 130 Å, 3.5 μm, 4.6 mm×250 mm; mobile phase: Solvent A=water (with 0.1% formic acid), solvent B=acetonitrile (with 0.1% formic acid). Gradients: 25-45% B in 10 minutes, 45-65% B in 12 minutes, 65-90% in 6 minutes at a flow rate of 0.5 mL/minute. Required amounts of the product were formulated in 1% PBSA for cell studies.
(§2) The study was conducted using Calu-6 cell line (Table 8)
(§3) Adherent cell studies: The cells were cultured in appropriate culture media (20 mL) in tissue culture treated T150 flasks at 37° C. and 5% CO2. Adherent cells were detached (60-70% confluent) using 5 mL Versene at 37° C. for 3 minutes. After confirming the viability using countess and count of detached cells using Trypan blue, the cells were centrifuged at 4° C. for 5 minutes (1,000 revolutions per minute). The cell pellet obtained was washed once with PBS and resuspended in 1% PBSA to obtain the desired cell concentration (5 million cells/mL).
Net internalization: The resuspended cells in 300 μl of 1% PBSA and counted in the gamma counter as “bound fraction” were collected in 1.5 mL Eppendorf tube and pelleted. The pelleted cells were incubated with 300 μl of 50 mM Glycine pH=2.5 for 3 minutes and then pelleted discarding the supernatant. This process was repeated one more time. The pelleted cells were washed with 300 μl of cold 1% PBSA and then resuspended in 300 μl 0.3 M NaOH. This was counted in the gamma counter as “internalized fraction”.
(§4) Calu-6 Cells are Human-Derived, Non-Engineered Lung Cancer Cell that Express B7-H3.

Calu-6 cell line [2] = test: Cell associated (bound) fraction of [177Lu]Lu-labeled peptide in Calu-6 cells; format: cell-based, Human; conditions: 1 hour, 37° C.
Protocol: as §1, §2, §3
Cell associated fraction: Cells were incubated with 300 μL (0.8 μCi) of the incubation buffer (containing radiolabeled peptide [^177Lu]Lu-test peptide) for 1 hour at 37 C (Table 9). Post incubation, the cells were pelleted and washed 2 times using cold PBS+1% BSA. The supernatant and washes were combined and counted together as “unbound fraction” in a gamma counter. The cells were then resuspended in 300 μL of 1% PBS+1% BSA and counted in the gamma counter as cell associated fraction (or bound fraction).
as §4

human 4lg B7-H3 = target: T1, human 4lg B7-H3 (Homo sapiens, UniProt Q5ZPR3); test: Affinity determination by surface plasmon resonance (SPR) to 4Ig B7-H3; conditions: 4Ig B7-H3
T1 sequence (Q5ZPR3 29-534): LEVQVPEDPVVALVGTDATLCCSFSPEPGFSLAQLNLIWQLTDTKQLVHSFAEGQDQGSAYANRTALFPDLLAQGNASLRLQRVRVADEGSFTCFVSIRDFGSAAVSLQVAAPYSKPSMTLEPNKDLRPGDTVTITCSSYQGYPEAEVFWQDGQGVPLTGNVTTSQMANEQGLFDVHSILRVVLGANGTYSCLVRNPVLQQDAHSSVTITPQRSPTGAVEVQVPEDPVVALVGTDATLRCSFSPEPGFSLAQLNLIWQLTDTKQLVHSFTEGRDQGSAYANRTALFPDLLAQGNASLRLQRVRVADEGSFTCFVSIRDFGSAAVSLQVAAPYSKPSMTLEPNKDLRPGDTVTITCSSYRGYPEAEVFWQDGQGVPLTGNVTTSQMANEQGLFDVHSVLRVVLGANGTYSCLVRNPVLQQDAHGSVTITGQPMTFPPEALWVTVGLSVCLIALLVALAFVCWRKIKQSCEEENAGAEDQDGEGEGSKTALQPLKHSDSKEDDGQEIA

[3] = read-out: SPR KD—25° C., 25° C. flow cell temperature

Molecule | % net internalization (Calu-6 cell line [1]) | % cell associated fraction (Calu-6 cell line [2]) | Kd (human 4lg B7-H3; read-out: SPR KD—37° C., 37° C. flow cell temperature) | Kd (human 4lg B7-H3; [3]) | Kd (human 4lg B7-H3; SPR KD—25° C., 25° C. flow cell temperature)
CC(C)CC[C@H](NS(C)(=O)=O)C(=O)N[C@@H](Cc1ccc(O)cc1)C(=O)N[C@H]1CSSC[C@@H](C(=O)N[C@@H](Cc2c[nH]c3ccc(F)cc23)C(=O)N[C@@H](Cc2ccccc2)C(=O)N[C@H](C(=O)N[C@H](CCCCNC(=O)CN2CCN(CC(=O)O)CCN(CC(=O)O)CCN(CC(=O)O)CC2)C(=O)O)C(C)(C)O)NC(=O)[C@H](Cc2ccc(O)cc2)NC(=O)[C@H](C(C)C)NC(=O)[C@H](CC(=O)O)NC(=O)[C@H](CC2CCOCC2)NC(=O)[C@H](CC2CCNCC2)NC(=O)CNC(=O)[C@H](C(C)(C)C)NC1=O [Cpd #437, MeSO2-hLeu-Y-C-Tbg-G-PipAla-ThpA-D-V-Y-C-5FW-F-hydroxyVal-dLys(DOTA)-COOH] (Ms-[hLeu]YC[Tle]G[Ala(piperidin-4-yl)][Ala(4-THP)]DVYC[Trp(5-F)]F[Val(3-OH)][dK](DOTA)-OH; disulfide 3-11) | A (%≤25) | B (25<%≤50) | < 1 nM | – | –
CC(=O)N[C@@H](CCC(C)C)C(=O)N[C@@H](Cc1ccc(O)cc1)C(=O)N[C@H]1CSSC[C@@H](C(=O)N[C@@H](Cc2c[nH]c3ccccc23)C(=O)N[C@@H](Cc2ccccc2)C(=O)N[C@H](C(=O)N[C@H](CCCCNC(=O)CN2CCN(CC(=O)O)CCN(CC(=O)O)CCN(CC(=O)O)CC2)C(N)=O)[C@@H](C)O)NC(=O)[C@H](Cc2ccc(O)cc2)NC(=O)[C@H](C(C)C)NC(=O)[C@H](CC(=O)O)NC(=O)[C@H](Cc2ccc(O)cc2)NC(=O)[C@H](CCCCN)NC(=O)CNC(=O)[C@H](C(C)(C)C)NC1=O [compound 72, Ac-hLeu-Y-C-Tbg-G-K-Y-D-V-Y-C-W-F-Thr-dLys(DOTA)-CONH2] (Ac-[hLeu]YC[Tle]GKYDVYCWFT[dK](DOTA)-NH2; disulfide 3-11) | A (%≤25) | C (%>50) | – | < 1 nM | –
CC(=O)N[C@@H](CCC(C)C)C(=O)N[C@@H](Cc1ccc(O)cc1)C(=O)N[C@H]1CSSC[C@@H](C(=O)N[C@@H](Cc2c[nH]c3ccc(F)cc23)C(=O)N[C@@H](Cc2ccccc2)C(=O)N[C@H](C(=O)N[C@H](CCCCNC(=O)CN2CCN(CC(=O)O)CCN(CC(=O)O)CCN(CC(=O)O)CC2)C(N)=O)[C@@H](C)O)NC(=O)[C@H](Cc2ccc(O)cc2)NC(=O)[C@H](C(C)C)NC(=O)[C@H](CC(=O)O)NC(=O)[C@H](Cc2ccc(O)cc2)NC(=O)[C@H](CCCCN)NC(=O)CNC(=O)[C@H](C(C)C)NC1=O [compound 73, Ac-hLeu-Y-C-V-G-K-Y-D-V-Y-C-5FW-F-Thr-dLys(DOTA)-CONH2] (Ac-[hLeu]YCVGKYDVYC[Trp(5-F)]FT[dK](DOTA)-NH2; disulfide 3-11) | A (%≤25) | C (%>50) | – | < 1 nM | –
CC(=O)N[C@@H](CCC(C)C)C(=O)N[C@@H](Cc1ccc(O)cc1)C(=O)N[C@H]1CSSC[C@@H](C(=O)N[C@@H](Cc2c[nH]c3ccccc23)C(=O)N[C@@H](Cc2ccccc2)C(=O)N[C@H](C(=O)N[C@H](CCCCNC(=O)CN2CCN(CC(=O)O)CCN(CC(=O)O)CCN(CC(=O)O)CC2)C(N)=O)[C@@H](C)O)NC(=O)[C@H](Cc2ccc(O)cc2)NC(=O)[C@H](C(C)C)NC(=O)[C@H](CC(=O)O)NC(=O)[C@H](Cc2ccc(O)cc2)NC(=O)[C@H](CCCCN)NC(=O)CN(C)C(=O)[C@H](C(C)C)NC1=O [compound 74, Ac-hLeu-Y-C-V-Sar-K-Y-D-V-Y-C-W-F-Thr-dLys(DOTA)-CONH2] (Ac-[hLeu]YCV[Sar]KYDVYCWFT[dK](DOTA)-NH2; disulfide 3-11) | A (%≤25) | B (25<%≤50) | – | 1 to 10 nM | –
CC(=O)N[C@@H](CCC(C)C)C(=O)N[C@@H](Cc1ccc(O)cc1)C(=O)N[C@H]1CSSC[C@@H](C(=O)N[C@@H](Cc2c[nH]c3ccc(F)cc23)C(=O)N[C@@H](Cc2ccccc2)C(=O)N[C@H](C(=O)N[C@H](CCCCNC(=O)CN2CCN(CC(=O)O)CCN(CC(=O)O)CCN(CC(=O)O)CC2)C(N)=O)[C@@H](C)O)NC(=O)[C@H](Cc2ccc(O)cc2)NC(=O)[C@H](C(C)C)NC(=O)[C@H](CC(=O)O)NC(=O)[C@H](Cc2ccc(O)cc2)NC(=O)[C@H](CCCCN)NC(=O)CNC(=O)[C@H](C(C)(C)C)NC1=O [compound 76, Ac-hLeu-Y-C-Tbg-G-K-Y-D-V-Y-C-5FW-F-Thr-dLys(DOTA)-CONH2] (Ac-[hLeu]YC[Tle]GKYDVYC[Trp(5-F)]FT[dK](DOTA)-NH2; disulfide 3-11) | A (%≤25) | C (%>50) | – | < 1 nM | –
CC(=O)N[C@@H](CCC(C)C)C(=O)N[C@@H](Cc1ccc(O)cc1)C(=O)N[C@H]1CSSC[C@@H](C(=O)N[C@@H](Cc2c[nH]c3ccc(F)cc23)C(=O)N[C@@H](Cc2ccccc2)C(=O)N[C@H](C(=O)N[C@H](CCCCNC(=O)CN2CCN(CC(=O)O)CCN(CC(=O)O)CCN(CC(=O)O)CC2)C(N)=O)[C@@H](C)O)NC(=O)[C@H](Cc2ccc(O)cc2)NC(=O)[C@H](C(C)C)NC(=O)[C@H](CC(=O)O)NC(=O)[C@H](Cc2ccc(O)cc2)NC(=O)[C@H](CCCCN)NC(=O)CN(C)C(=O)[C@H](C(C)C)NC1=O [compound 77, Ac-hLeu-Y-C-V-Sar-K-Y-D-V-Y-C-5FW-F-Thr-dLys(DOTA)-CONH2] (Ac-[hLeu]YCV[Sar]KYDVYC[Trp(5-F)]FT[dK](DOTA)-NH2; disulfide 3-11) | A (%≤25) | C (%>50) | – | 1 to 10 nM | –
CC(=O)N[C@@H](CCC(C)C)C(=O)N[C@@H](Cc1ccc(O)cc1)C(=O)N[C@H]1CSSC[C@@H](C(=O)N[C@@H](Cc2c[nH]c3ccccc23)C(=O)N[C@@H](Cc2ccccc2)C(=O)N[C@H](C(=O)N[C@H](CCCCNC(=O)CN2CCN(CC(=O)O)CCN(CC(=O)O)CCN(CC(=O)O)CC2)C(N)=O)[C@@H](C)O)NC(=O)[C@H](Cc2ccc(O)cc2)NC(=O)[C@H](C(C)C)NC(=O)[C@H](CC(=O)O)NC(=O)[C@H](Cc2ccncc2)NC(=O)[C@H](CCCCN)NC(=O)CNC(=O)[C@H](C(C)(C)C)NC1=O [compound 157, Ac-hLeu-Y-C-Tbg-G-K-4PyA-D-V-Y-C-W-F-Thr-dLys(DOTA)-CONH2] (Ac-[hLeu]YC[Tle]GK[4Pal]DVYCWFT[dK](DOTA)-NH2; disulfide 3-11) | A (%≤25) | B (25<%≤50) | – | < 1 nM | –
CC(=O)N[C@@H](CCC(C)C)C(=O)N[C@@H](Cc1ccc(O)cc1)C(=O)N[C@H]1CSSC[C@@H](C(=O)N[C@@H](Cc2cccc3ccccc23)C(=O)N[C@@H](Cc2ccccc2)C(=O)N[C@H](C(=O)N[C@H](CCCCNC(=O)CN2CCN(CC(=O)O)CCN(CC(=O)O)CCN(CC(=O)O)CC2)C(N)=O)[C@@H](C)O)NC(=O)[C@H](Cc2ccc(O)cc2)NC(=O)[C@H](C(C)C)NC(=O)[C@H](CC(=O)O)NC(=O)[C@H](Cc2ccc(O)cc2)NC(=O)[C@H](CCCCN)NC(=O)CNC(=O)[C@H](C(C)C)NC1=O [compound 158, Ac-hLeu-Y-C-V-G-K-Y-D-V-Y-C-1Nal-F-Thr-dLys(DOTA)-CONH2] (Ac-[hLeu]YCVGKYDVYC[1Nal]FT[dK](DOTA)-NH2; disulfide 3-11) | B (25<%≤50) | C (%>50) | – | – | < 1 nM
Ac-hLeu-Y-C-Tbg-G-Pip(PEG4-DOTA)Ala-ThpA-D-V-Y-C-5FW-[(2S, 3S)beta-Me-Phe]-hydroxyVal-dAla-COOH [compound 494] | B (25<%≤50) | C (%>50) | – | – | –
